Test results as given in patent US20100099561A1, “HETEROBICYCLIC ALKYLTHIO-BRIDGED ISOXAZOLINES” (E.I. DU PONT DE NEMOURS AND COMPANY, priority 2008, published 2010).

Assays:
Assay type in all cases: in vivo
[1] = test system: barnyardgrass (Echinochloa crus-galli); assay: Test A preemergence, barnyardgrass; conditions: 0 to 100 scale (0 no effect, 100 complete control)
Method in brief: (§1)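 Sow seeds in loam–sand blend; spray soil directly (pre) and treat emerged one- to two-leaf plants 2–10 cm tall (post) with compound in surfactant-containing non-phytotoxic solvent. Keep in greenhouse about ten days. Score injury visually against controls from 0 to 100.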

[2] = test system: morningglory (Ipomoea spp.); assay: Test A preemergence, morningglory; conditions: 0 to 100 scale (0 no effect, 100 complete control)
Method in brief: as §1

[3] = test system: barnyardgrass (Echinochloa crus-galli); assay: Test A postemergence, barnyardgrass; conditions: 0 to 100 scale (0 no effect, 100 complete control)
Method in brief: as §1

[4] = test system: barnyardgrass (Echinochloa crus-galli); assay: Test B flooded paddy test, barnyardgrass; conditions: Flood, scale 0 to 100
Method in brief: (§2)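 Compounds were added directly to paddy water over 2-leaf-stage plants in pots flooded 3 cm above soil, water depth maintained. Visual injury scored against controls after 13 to 15 days in greenhouse, 0 (none) to 100 (complete control); dash indicates no result.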

corn (Zea mays) [5] = assay: Test A preemergence, corn; conditions: 0 to 100 scale (0 no effect, 100 complete control)
Method in brief: as §1

rice (Oryza sativa) = assay: Test B flooded paddy test, rice; conditions: Flood, scale 0 to 100
Method in brief: as §2

[6] = test system: velvetleaf (Abutilon theophrasti); assay: Test A postemergence, velvetleaf; conditions: 0 to 100 scale (0 no effect, 100 complete control)
Method in brief: as §1

[7] = test system: pigweed (Amaranthus retroflexus); assay: Test A preemergence, pigweed; conditions: 0 to 100 scale (0 no effect, 100 complete control)
Method in brief: as §1

[8] = test system: large crabgrass (Digitaria sanguinalis); assay: Test A preemergence, large crabgrass; conditions: 0 to 100 scale (0 no effect, 100 complete control)
Method in brief: as §1

[9] = test system: pigweed (Amaranthus retroflexus); assay: Test A postemergence, pigweed; conditions: 0 to 100 scale (0 no effect, 100 complete control)
Method in brief: as §1

[10] = test system: giant foxtail (Setaria faberi); assay: Test A preemergence, giant foxtail; conditions: 0 to 100 scale (0 no effect, 100 complete control)
Method in brief: as §1

[11] = test system: morningglory (Ipomoea spp.); assay: Test A postemergence, morningglory; conditions: 0 to 100 scale (0 no effect, 100 complete control)
Method in brief: as §1

[12] = test system: giant foxtail (Setaria faberi); assay: Test A postemergence, giant foxtail; conditions: 0 to 100 scale (0 no effect, 100 complete control)
Method in brief: as §1

[13] = test system: ducksalad (Heteranthera limosa); assay: Test B flooded paddy test, ducksalad; conditions: Flood, scale 0 to 100
Method in brief: as §2

[14] = test system: velvetleaf (Abutilon theophrasti); assay: Test A preemergence, velvetleaf; conditions: 0 to 100 scale (0 no effect, 100 complete control)
Method in brief: as §1

[15] = test system: wheat (Triticum aestivum); assay: Test A preemergence, wheat; conditions: 0 to 100 scale (0 no effect, 100 complete control)
Method in brief: as §1

[16] = test system: umbrella sedge (Cyperus difformis); assay: Test B flooded paddy test, umbrella sedge; conditions: Flood, scale 0 to 100
Method in brief: as §2

[17] = test system: large crabgrass (Digitaria sanguinalis); assay: Test A postemergence, large crabgrass; conditions: 0 to 100 scale (0 no effect, 100 complete control)
Method in brief: as §1

[18] = test system: wheat (Triticum aestivum); assay: Test A postemergence, wheat; conditions: 0 to 100 scale (0 no effect, 100 complete control)
Method in brief: as §1

corn (Zea mays) [19] = assay: Test A postemergence, corn; conditions: 0 to 100 scale (0 no effect, 100 complete control)
Method in brief: as §1

Structure (SMILES)	Plant response rating, Barnyardgrass ([1]; 125 g ai/ha)	Plant response rating, Barnyardgrass ([1]; 500 g ai/ha)	Plant response rating, Morningglory ([2]; 125 g ai/ha)	Plant response rating, Morningglory ([2]; 500 g ai/ha)	Plant response rating, Barnyardgrass ([3]; 125 g ai/ha)	Plant response rating, Barnyardgrass ([3]; 500 g ai/ha)	Plant response rating, Barnyardgrass ([4]; 31 g ai/ha)	Plant response rating, Barnyardgrass ([4]; 125 g ai/ha)	Plant response rating, Corn (corn (Zea mays) [5]; 125 g ai/ha)	Plant response rating, Corn (corn (Zea mays) [5]; 500 g ai/ha)	Plant response rating, Rice (rice (Oryza sativa); 31 g ai/ha)	Plant response rating, Rice (rice (Oryza sativa); 125 g ai/ha)	Plant response rating, Velvetleaf ([6]; 125 g ai/ha)	Plant response rating, Velvetleaf ([6]; 500 g ai/ha)	Plant response rating, Pigweed ([7]; 125 g ai/ha)	Plant response rating, Pigweed ([7]; 500 g ai/ha)	Plant response rating, Crabgrass, Large ([8]; 125 g ai/ha)	Plant response rating, Crabgrass, Large ([8]; 500 g ai/ha)	Plant response rating, Pigweed ([9]; 125 g ai/ha)	Plant response rating, Pigweed ([9]; 500 g ai/ha)	also measured
CC1(C)CC(S(=O)(=O)Cc2c(C(F)(F)Cl)nc3n(c2=O)CCCC3)=NO1 [Compound 30]	50	100	30	40	60	80	0	0	0	0	0	0	20	50	70	100	90	100	50	60	Plant response rating, Foxtail, Giant ([10]; 125 g ai/ha): 90; Plant response rating, Foxtail, Giant ([10]; 500 g ai/ha): 100; Plant response rating, Morningglory ([11]; 125 g ai/ha): 10; Plant response rating, Morningglory ([11]; 500 g ai/ha): 50; Plant response rating, Foxtail, Giant ([12]; 125 g ai/ha): 60; Plant response rating, Foxtail, Giant ([12]; 500 g ai/ha): 80; Plant response rating, Ducksalad ([13]; 31 g ai/ha): 0; Plant response rating, Ducksalad ([13]; 125 g ai/ha): 0; Plant response rating, Velvetleaf ([14]; 125 g ai/ha): 40; Plant response rating, Velvetleaf ([14]; 500 g ai/ha): 60; Plant response rating, Wheat ([15]; 125 g ai/ha): 0; Plant response rating, Wheat ([15]; 500 g ai/ha): 50; Plant response rating, Sedge, Umbrella ([16]; 31 g ai/ha): 0; Plant response rating, Sedge, Umbrella ([16]; 125 g ai/ha): 0; Plant response rating, Crabgrass, Large ([17]; 125 g ai/ha): 60; Plant response rating, Crabgrass, Large ([17]; 500 g ai/ha): 80; Plant response rating, Wheat ([18]; 125 g ai/ha): 0; Plant response rating, Wheat ([18]; 500 g ai/ha): 50; Plant response rating, Corn (corn (Zea mays) [19]; 125 g ai/ha): 0; Plant response rating, Corn (corn (Zea mays) [19]; 500 g ai/ha): 0
CC1(C)CC([S+]([O-])Cc2c(C(F)(F)Cl)nc3n(c2=O)CCCC3)=NO1 (centres unmarked) [Compound 32]	20	70	0	0	10	40	0	0	0	0	0	0	0	10	0	0	50	80	0	30	Plant response rating, Foxtail, Giant ([10]; 125 g ai/ha): 30; Plant response rating, Foxtail, Giant ([10]; 500 g ai/ha): 80; Plant response rating, Morningglory ([11]; 125 g ai/ha): 40; Plant response rating, Morningglory ([11]; 500 g ai/ha): 50; Plant response rating, Foxtail, Giant ([12]; 125 g ai/ha): 0; Plant response rating, Foxtail, Giant ([12]; 500 g ai/ha): 50; Plant response rating, Ducksalad ([13]; 31 g ai/ha): 0; Plant response rating, Ducksalad ([13]; 125 g ai/ha): 0; Plant response rating, Velvetleaf ([14]; 125 g ai/ha): 0; Plant response rating, Velvetleaf ([14]; 500 g ai/ha): 0; Plant response rating, Wheat ([15]; 125 g ai/ha): 0; Plant response rating, Wheat ([15]; 500 g ai/ha): 0; Plant response rating, Sedge, Umbrella ([16]; 31 g ai/ha): 0; Plant response rating, Sedge, Umbrella ([16]; 125 g ai/ha): 0; Plant response rating, Crabgrass, Large ([17]; 125 g ai/ha): 10; Plant response rating, Crabgrass, Large ([17]; 500 g ai/ha): 40; Plant response rating, Wheat ([18]; 125 g ai/ha): 0; Plant response rating, Wheat ([18]; 500 g ai/ha): 0; Plant response rating, Corn (corn (Zea mays) [19]; 125 g ai/ha): 0; Plant response rating, Corn (corn (Zea mays) [19]; 500 g ai/ha): 0
